One assay is described as follows: Plasma triglycerides. The format is in vivo. The conditions noted are these: db/db mice, 2.5 μmol/kg/day, 8 days; n = 5. On the procedure:
All of the experiments were performed according to the animal ethical laws of the state Saxony, Germany, and were approved by the local animal ethics review board (Landesdirektion Sachsen, Leipzig, Germany). Female db/db mice 12–15 weeks of age were purchased from Taconic (Denmark) and housed in groups of 5 in temperature- and humidity-controlled facilities in a 12 h:12 h light–dark cycle and had free access to tap water and food (regular chow, Sniff, Soest, Germany). Three out of seven groups served as controls (N = 15, see Table 1). The 5 db/db mice were untreated and 10 db/db mice were vehicle treated either orally or intraperitoneally (i.p.). One additional group (n = 5) of lean C57BL/6NTac mice was used as a metabolically healthy control group. […]
Serum insulin (mouse insulin ELISA, Mercodia, Uppsala, Sweden), adiponectin (mouse adiponectin ELISA, AdipoGen, San Diego, CA, USA), leptin (mouse leptin ELISA, Crystal Chem, Downers Grove, IL, USA), and Mcp-1 (mouse/rat CCL2/JE/Mcp-1 Quantikine ELISA, R&D Systems, Minneapolis, MN, USA) levels were analyzed via ELISA according to the manufacturer's instructions. Serum concentrations of TG, FFA, and cholesterol were measured by an automatic chemical analyzer at the Institute of Laboratory Medicine and Clinical Chemistry.

The subject of a further assay is db/db mice. The following applies: ref Cha et al. [93]; cited from earlier work. From the text: To strengthen this finding, we examined the expression of the PPARγ-responsive genes adiponectin, Fabp4, and Cidec [[71], [72], [73], [74],[88], [89], [90], [91]]. Adiponectin may mediate the beneficial effects of PPARγ agonists for the treatment of diabetes, as it is an insulin-sensitizing adipokine that affects hepatic glucose output and decre ...

As to `CCO[C@@H](Cc1ccc(OCCc2ccc(OS(C)(=O)=O)cc2)cc1)C(=O)O` [tesa, tesaglitazar], in “Plasma triglycerides”, the triglycerides entry was “normalization”. Also, the “adiponectin mRNA expression and plasma levels” value in the assay on db/db mice was “induces increased adiponectin mRNA expression and plasma levels in db/db mice”.

Values taken from article PMC6931124, “NPY1R-targeted peptide-mediated delivery of a dual PPARα/γ agonist to adipocytes enhances adipogenesis and prevents diabetes progression” (Molecular Metabolism, 2019).
